# Data as given in patent EP0670711B1, “ANTIFUNGAL MOUTHCARE COMPOSITIONS” (AMBI Inc., priority 1992, dated 1994).
# Read-outs that look alike come from different tables or passages of the source.
# Key:
# Format in all cases: cell-based
# [1] = test system: Strep. agalactiæ; experiment: nominal inhibitory concentration (NIC) assay; conditions: read-out: NIC
# [2] = test system: Strep. sanguis; experiment: nominal inhibitory concentration (NIC) assay; conditions: read-out: NIC
# [3] = test system: Strep.mutans; experiment: nominal inhibitory concentration (NIC) assay; conditions: Streptococcus mutans, read-out: NIC
# [4] = test system: Strep. milleri; experiment: nominal inhibitory concentration (NIC) assay; conditions: read-out: NIC
# [5] = test system: Strep. mitis; experiment: nominal inhibitory concentration (NIC) assay; conditions: Streptococcus mitis, read-out: NIC
# [6] = test system: Strep mitior; experiment: nominal inhibitory concentration (NIC) assay; conditions: read-out: NIC
# [7] = test system: Strep. salivarius; experiment: nominal inhibitory concentration (NIC) assay; conditions: Streptococcus salivarius, read-out: NIC
# [8] = test system: Strep.pyogenes; experiment: nominal inhibitory concentration (NIC) assay; conditions: Streptococcus pyogenes, read-out: NIC
# [9] = test system: Staph.aureus; experiment: nominal inhibitory concentration (NIC) assay; conditions: Staphylococcus aureus, read-out: NIC
# [10] = test system: A actinomyces NCTC 9709; experiment: zone diffusion assay; conditions: solution with 500ppm of each agent
# Excerpt: (§1) The assay was repeated for each of cetyl pyridinium chloride, chlorhexidine or triclosan individually. […]
# [11] = test system: C albicans NCTC 3089; experiment: zone diffusion assay; conditions: solution with 500ppm of each agent
# Excerpt: as §1
# [12] = test system: C kefyr NCTC 3106; experiment: zone diffusion assay; conditions: solution with 500ppm of each agent
# Excerpt: as §1
# [13] = test system: C tropicalis NCTC 3114; experiment: zone diffusion assay; conditions: solution with 500ppm of each agent
# Excerpt: as §1
# [14] = test system: F nucleatum NCTC 10562; experiment: zone diffusion assay; conditions: solution with 500ppm of each agent
# Excerpt: as §1
# [15] = test system: S mutans NCTC 11061; experiment: zone diffusion assay; conditions: solution with 500ppm of each agent
# Excerpt: as §1
# [16] = test system: S sanguis NCTC 10904; experiment: zone diffusion assay; conditions: solution with 500ppm of each agent
# Excerpt: as §1
# [17] = test system: W recta NCTC 11489; experiment: zone diffusion assay; conditions: solution with 500ppm of each agent
# Excerpt: as §1
# [18] = test system: G.vaginalis; experiment: nominal inhibitory concentration (NIC) assay; conditions: Gardnerella vaginalis, read-out: NIC
# [19] = test system: Lacto odontolyticus; experiment: nominal inhibitory concentration (NIC) assay; conditions: read-out: NIC
# [20] = test system: Act. odontolyticus; experiment: nominal inhibitory concentration (NIC) assay; conditions: Schaalia odontolytica, read-out: NIC
# [21] = test system: Act. naeslundii; experiment: nominal inhibitory concentration (NIC) assay; conditions: Actinomyces naeslundii, read-out: NIC
# [22] = test system: Act. actinomycetem; experiment: nominal inhibitory concentration (NIC) assay; conditions: read-out: NIC
# [23] = test system: Fuso. nucleatum; experiment: nominal inhibitory concentration (NIC) assay; conditions: Fusobacterium nucleatum, read-out: NIC
# [24] = test system: Bact. intermedius; experiment: nominal inhibitory concentration (NIC) assay; conditions: Prevotella intermedia, read-out: NIC
# [25] = test system: Peptostrepto. micros; experiment: nominal inhibitory concentration (NIC) assay; conditions: read-out: NIC
# [26] = test system: Porph. gingivalis; experiment: nominal inhibitory concentration (NIC) assay; conditions: Porphyromonas gingivalis, read-out: NIC
# [27] = test system: Bact. ureolyticus; experiment: nominal inhibitory concentration (NIC) assay; conditions: read-out: NIC
# [28] = test system: Candida kefyr; experiment: nominal inhibitory concentration (NIC) assay; conditions: Kluyveromyces marxianus, read-out: NIC
# [29] = test system: Candida tropicalis; experiment: nominal inhibitory concentration (NIC) assay; conditions: read-out: NIC
# [30] = test system: Act. israelii; experiment: nominal inhibitory concentration (NIC) assay; conditions: Actinomyces israelii, read-out: NIC
# [31] = test system: Candida albicans; experiment: nominal inhibitory concentration (NIC) assay; conditions: read-out: NIC
# [32] = test system: all the organisms shown in the Example 25 Table 1; experiment: NIC assay, summary over all organisms of Table 1; conditions: read-out: levels needed to inhibit all the desired oral microrganisms
# [33] = test system: Candida organisms; experiment: NIC assay, summary for Candida; conditions: for MIC: read-out: levels for Candida inhibition; for inhibitory activity against candida species: result in words, NIC assay
smiles,measurement,setting,value
"CCCCCCCCCCCCCCCC[n+]1ccccc1 [CPC, cetyl pyridinium chloride]",MIC,[1],0.78 µg/mL
same,MIC,[2],2.12 µg/mL
same,MIC,[3],3.1 µg/mL
same,MIC,[4],4.58 µg/mL
same,MIC,[5],2.23 µg/mL
same,MIC,[6],1.22 µg/mL
same,MIC,[7],2.36 µg/mL
same,MIC,[8],0.78 µg/mL
same,MIC,[9],0.66 µg/mL
same,mean zones,[10],19.41 mm
same,mean zones,[11],9.79 mm
same,mean zones,[12],10.43 mm
same,mean zones,[13],10.39 mm
same,mean zones,[14],18.99 mm
same,mean zones,[15],17.05 mm
same,mean zones,[16],14.44 mm
same,mean zones,[17],17.15 mm
same,MIC,[18],0.3 µg/mL
same,MIC,[19],0.83 µg/mL
same,MIC,[20],1.23 µg/mL
same,MIC,[21],4.61 µg/mL
same,MIC,[22],1.02 µg/mL
same,MIC,[23],0.82 µg/mL
same,MIC,[24],4.68 µg/mL
same,MIC,[25],4.96 µg/mL
same,MIC,[26],0.94 µg/mL
same,MIC,[27],0.56 µg/mL
same,MIC,[28],0.61 µg/mL
same,MIC,[29],0.48 µg/mL
"[H]/N=C(\N/C(=N/[H])NCCCCCCNC(=N)NC(=N)Nc1ccc(Cl)cc1)Nc1ccc(Cl)cc1 [CHX, chlorhexidine]",MIC,[1]; Strep. agalactiæ,0.41 µg/mL
same,MIC,[2]; Strep. sanguis,0.86 µg/mL
same,MIC,[3]; Strep.mutans,3.94 µg/mL
same,MIC,[4]; Strep. milleri,1.58 µg/mL
same,MIC,[5]; Strep. mitis,1.5 µg/mL
same,MIC,[6]; Strep mitior,4.55 µg/mL
same,MIC,[7]; Strep. salivarius,1.44 µg/mL
same,MIC,[8]; Strep.pyogenes,0.16 µg/mL
same,MIC,[9]; Staph.aureus,0.54 µg/mL
same,mean zones,[10],35.68 mm
same,mean zones,[11],14.93 mm
same,mean zones,[12],17.03 mm
same,mean zones,[13],17.36 mm
same,mean zones,[14],36.97 mm
same,mean zones,[15],29.68 mm
same,mean zones,[16],22.76 mm
same,mean zones,[17],32.35 mm
same,MIC,[18]; G.vaginalis,1.3 µg/mL
same,MIC,[19]; Lacto odontolyticus,1.88 µg/mL
same,MIC,[20]; Act. odontolyticus,3.37 µg/mL
same,MIC,[30]; Act. israelii,4.11 µg/mL
same,MIC,[21]; Act. naeslundii,2.01 µg/mL
same,MIC,[22]; Act. actinomycetem,0.53 µg/mL
same,MIC,[23]; Fuso. nucleatum,0.64 µg/mL
same,MIC,[24]; Bact. intermedius,2.49 µg/mL
same,MIC,[25]; Peptostrepto. micros,8.46 µg/mL
same,MIC,[26]; Porph. gingivalis,2.36 µg/mL
same,MIC,[27]; Bact. ureolyticus,0.69 µg/mL
same,MIC,[31],1.71 µg/mL
same,MIC,[28]; Candida kefyr,0.42 µg/mL
same,MIC,[29],0.98 µg/mL
same,MIC,[32],~8.46 µg/mL
same,MIC,[33]; Candida organisms,1.71 µg/mL
same,inhibitory activity against candida species,[33],effective
"Oc1cc(Cl)ccc1Oc1ccc(Cl)cc1Cl [TCN, triclosan]",MIC,[1],4.96 µg/mL
same,MIC,[2],0.88 µg/mL
same,MIC,[3],1.11 µg/mL
same,MIC,[4],1.08 µg/mL
same,MIC,[5],3.94 µg/mL
same,MIC,[6],4.23 µg/mL
same,MIC,[7],4.05 µg/mL
same,MIC,[8],4.35 µg/mL
same,MIC,[9],0.09 µg/mL
same,mean zones,[10],35.92 mm
same,mean zones,[11],16.99 mm
same,mean zones,[12],21.99 mm
same,mean zones,[13],13.66 mm
same,mean zones,[14],33.98 mm
same,mean zones,[15],32.82 mm
same,mean zones,[16],28.97 mm
same,mean zones,[17],37.20 mm
same,MIC,[18],0.41 µg/mL
same,MIC,[19],7.49 µg/mL
same,MIC,[20],3.02 µg/mL
same,MIC,[30],3.19 µg/mL
same,MIC,[21],1.98 µg/mL
same,MIC,[22],1.69 µg/mL
same,MIC,[23],1.6 µg/mL
same,MIC,[24],3.72 µg/mL
same,MIC,[25],6.76 µg/mL
same,MIC,[26],4 µg/mL
same,MIC,[27],7.65 µg/mL
same,MIC,[31],1 µg/mL
same,MIC,[28],0.46 µg/mL
same,MIC,[29],0.35 µg/mL
same,MIC,[32],~7.65 µg/mL
same,MIC,[33]; Candida,~1 µg/mL
same,inhibitory activity against candida species,[33],effective
